Test results taken from patent publication US20150329864A1, “DESIGN OF OLIGONUCLEOTIDE ANALOGS AS THERAPEUTIC AGENTS” (SPRING BANK PHARMACEUTICALS, INC., priority 2010, published 2015).

How the values were obtained:
EEEH protein = experiment: EEEH expression in woodchucks after sublingual administration; format: in vivo; details: following absorption by the sublingual route
Procedure: Compound 5 was administered by sublingual route to woodchucks, at a dose of […] in Transcutol, and blood was drawn periodically for analysis. Test results are provided in Tables 4 and 5 and FIG. 3 and FIG. 4.

NOD2 = experiment: IRF3 induction in HEK cells with or without transfected NOD2; format: cell-based
PBMCs = format: cell-based
[1] = Cytotoxicity by neutral red dye uptake in HCV replicon cultures; format: cell-based; details: human, AVA5 HCV replicon cell line (sub-genomic CON1, genotype 1b); parallel plates, 3-day assay; read-out: CC50, neutral red dye uptake
Procedure: Antiviral activity against HCV was assessed in a 3-day assay (Okuse, et al., 2005; Antiviral. Res. 65:23; Korba, et al., 2008, Antiviral Res. 77:56) using the stably-expressing HCV replicon cell line, AVA5 (sub-genomic (CON1), genotype 1b) (Blight, et al., 2000; Science 290:1972) maintained as sub-confluent cultures on 96-well plates. Antiviral activity was determined by blot hybridization analysis of intracellular HCV RNA (normalized to the level of cellular B-actin RNA in each culture sample). Cytotoxicity was assessed by neutral red dye uptake in cultures maintained in parallel plates.
EC50, EC90, and CC50 values were calculated by linear regression analysis (MS EXCEL®, QuattroPro®) using data combined from all treated cultures Korba & Gerin, 1992, Antivir. Res. 19:55; Okuse, et al., 2005, Antivir. Res. 65:23). […]
Combination treatments are conducted as previously described. Briefly, two agents were mixed together at a pre-determined concentration ratio. […] Analysis of drug interactions in the combination studies was determined by the use of the CALCUSYN program (Biosoft, Inc., Cambridge, United Kingdom). […]

[2] = tested on: HCV replicon H/FL-Neo (genotype 1a (H77), full length construct); experiment: Secondary anti-HCV assay, replicon H/FL-Neo; format: cell-based; details: Hepatitis C virus
Text: This assay assesses activity against additional genotypes using the format described for the primary assay. Activity against the genotype 1b HCV was included for comparison. A replicon cell line containing H/FL-Neo (genotype 1a (H77), full length construct) (Blight, et al., 2003, J. Virol. 77:3181) was used.

HCV = experiment: Combination studies against HCV in replicon assays; format: cell-based; details: Hepatitis C virus, read-out: EC50 (uM), single drug

Row | SMILES | kinetics of induction of the EEEH protein (EEEH protein) | induction of IRF3 (NOD2; HEK cells transfected with NOD2) | induction of IRF3 (NOD2; NOD2 deficient HEK cells) | induction of IFN (PBMCs) | CC50 at 3 day [1] | EC50 [2] | EC90 [2] | EC50 (HCV)
1 | CO[C@H]1C(OP(=O)(S)OC[C@H]2O[C@@H](n3cnc4c(N)ncnc43)CC2O)[C@@H](CO)O[C@H]1n1ccc(=O)[nH]c1=O (some centres unmarked) [Compound 5, 3-dApsU2′-OMe] | very rapid | cause induction of IRF3 | failed to induce IRF3 | induction of IFN beta |  |  |  | 
2 | CO[C@H]1C(OP(=O)(OC[C@H]2O[C@@H](n3cnc4c(N)ncnc43)CC2O)SCOC(=O)OC(C)C)[C@@H](CO)O[C@H]1n1ccc(=O)[nH]c1=O (some centres unmarked) [Compound 6k] |  |  |  |  | > 100000 nM | 1000 nM | ~6000 nM | 1.5 to 2.3 µM
